Test results: patent EP3048886B1, “3, 4-BIS-BENZYLSULFONYLBUTANENITRILE AND ITS PHARMACEUTICAL USE” (Olatec Therapeutics LLC, priority 2013, dated 2015)

Key:
[1] = system: tail flick reaction to heat; test: tail flick test (49°C water bath) in mice; details: mouse, in vivo
Protocol: The tail flick test is a test of the pain response in animals. The tail flick test is used in basic pain research and to measure the effectiveness of analgesics, by observing the tail flick reaction to heat in an animal. This test assesses the nociceptive response to a local pain stimulus, and the ability of a drug to inhibit this response.
Vehicle control (DMSO) and test compound 3,4-bis-benzylsulfonylbutanenitrile in DMSO were administered by oral gavage to mice with a volume of 5 mL/kg, immediately prior to testing, at time zero. The test compound was administered at a dosage of 500 mg/kg in DMSO. Positive control morphine in water was administered at time zero by subcutaneous injection at 8 mg/kg to mice. […] The purpose of morphine is not to serve as a comparison with the test compound. Each group had 10 mice.
The response of mice to heat stimulus was evaluated by measuring the time of tail-flick or tail-flick latency from 49°C water bath. Briefly, the animal was held with its tail hanging down. Approximately 5.08 cm (2 inches) of the tail was immersed in a beaker of water at 38±1 °C for about 30 seconds, and this was done twice to acclimate the animal to the procedure.
Subsequently, approximately 5.08 cm (2 inches) of the tail was immersed in a beaker of water at 49±1 °C, at which point a timer was started. […]

[2] = system: arachidonic acid-induced ear swelling; test: topical arachidonic acid-induced ear swelling model in mice; assay type: in vivo; details: inhibition of ear swelling vs vehicle, male ICR mice; topical application 30 min before and 15 min after arachidonic acid; measured at 90 minutes after arachidonic acid application
Protocol: The test compound, indomethacin (positive control), and vehicle were evaluated for anti-inflammatory activity in a topical arachidonic acid-induced ear swelling model in mice.
Male ICR mice weighing 22 ± 2 g were used and randomly divided; the test compound and vehicle control had 10 mice, and indomethacin had 5 mice. Arachidonic Acid (0.5 mg in 20 µl of acetone:ethanol/1:1) was applied topically to the anterior and posterior surfaces of the right ear of each mouse. Test substances and vehicle, as listed in Table 2 were similarly applied 30 min before and 15 min after arachidonic acid application. The thickness of the right ear and the left ear was measured and the difference calculated as an indication of the inflammation in the right ear. Ear swelling was measured by a Dyer model micrometer gauge at 60 and 90 minutes after arachidonic acid application as an index of inflammation. Percent inhibition was calculated according to the formula: Ic - It/Ic x 100, where Ic and It refers to increase of ear thickness (mm) in control and treated mice, respectively. ANOVA and Dunnett's test were employed to ascertain significant difference between vehicle control and treated groups. Significance is set at P<0.05 level.

Row | SMILES | tail flick latency compared with vehicle-treated mice [1] | % Inhibition [2]
1 | CN1CC[C@]23c4c5ccc(O)c4O[C@H]2[C@@H](O)C=C[C@H]3[C@H]1C5 [morphine] | not | 
2 | N#CCC(CS(=O)(=O)Cc1ccccc1)S(=O)(=O)Cc1ccccc1 (centres unmarked) [3,4-bis-benzylsulfonylbutanenitrile] |  | 34%
